Reference: patent publication US9221808B2, “Pyridylthiazole-based ureas as inhibitors of Rho associated protein kinase (ROCK) and methods of use” (H. Lee Moffitt Cancer Center and Research Institute, Inc., priority 2010, dated 2015)
Read-outs that look alike come from different tables or passages of the source.

Tests used:
ROCK1 = ROCK1 (Homo sapiens (Human), UniProt Q13464); test: FRET-based Z'-Lyte kinase assay, ROCK1; type: biochemical;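 further: kinase phosphorylates a coumarin/fluorescein-labelled FRET peptide, then a protease cleaves unphosphorylated peptide, progress read as donor to acceptor emission ratio after 400 nm excitation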
Text: (§1) A) In the primary reaction, the Rho kinases phosphorylates a single serine or threonine residue in a synthetic FRET-peptide. This FRET-peptide is doubly labeled with a fluorophore at each end—coumarin (the FRET donor) on one end and fluorescein (the FRET acceptor) on the other—and also contains a single phosphorylation site which either overlaps with or lies adjacent to the proteolytic site. B) In the secondary reaction, a site-specific protease recognizes and cleaves the non-phosphorylated FRET-peptide. Cleavage disrupts FRET between the donor and acceptor fluorophores on the FRET-peptide, whereas uncleaved, phosphorylated FRET-peptides maintain FRET. Kinases phosphorylated FRET-peptides cannot be cleaved by the protease. […] Cleavage disrupts FRET and causes a decrease in the fluorescein fluorescence signal and a strong increase in the coumarin fluorescence signal. Therefore the extension of the phosphprylation can be measured by FRET-signal remaining the protease reaction. The assay uses a ratiometric method, which calculates the ratio of donor emission to acceptor emission (the emission ratio) after excitation of the donor fluorophore at 400 nm, to quantitate reaction progress.
(§2) All compounds were systematically screened against ROCK1 and ROCK2.

ROCK2 [1] = biological target: T1, ROCK2 (Homo sapiens (Human), UniProt O75116); test: FRET-based Z'-Lyte kinase assay, ROCK2; type: biochemical;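 further: kinase phosphorylates a coumarin/fluorescein FRET peptide, then a protease cleaves unphosphorylated peptide, read as donor/acceptor emission ratio after 400 nm excitation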
Text: as §1, §2

Aurora-A = Aurora-A (Homo sapiens (Human), UniProt O14965); test: preliminary kinase-selectivity profile, Aurora-A; type: biochemical
ROCK2 [2] = biological target: T1, ROCK2; details: reported by MLSCN, assay ID 644; read-out: ROCK2 enzymatic activity IC50; cited from earlier work
[3] = system: phosphorylation of MYPT1, a substrate for ROCK kinase, in H1299 cells; test: phosphorylation levels of MYPT1 in intact H1299 cells (western blot); type: cell-based, human; details: for IC50: H1299 human lung cancer cells, read-out: IC50 for inhibition of phosphorylation of MYPT1
breast tumors = test: transgenic mouse breast cancer model (rat Her2 under MMTV promoter); type: in vivo; details: 200 mpk/day, once a day for 14 days; last day of treatment relative to day of initiation
Procedure: The anti tumor activity of 1bo was determined in vivo in a transgenic mouse breast cancer model. In this model, the mice harbor the rat Her2 gene under the control of the MMTV promoter. These mice therefore spontaneously develop tumors in their mammary tissues. Breast tumors were measured beginning at the time of tumor onset and treatment (once a day for 14 days) with vehicle (20% HPCD) or 1bo (200 mpk/day) began when tumor volumes reached about 200 to 2,300 mm^3. A wide range of tumor volumes was used to ensure that responses were not volume dependent. […] The percent change was calculated from the tumor volume on the last day of treatment relative to the volume on the day of initiation of treatment. […] Thus, on average the breast tumors from 1bo treated mice were 6.6 fold smaller compared to those tumors from mice treated with the vehicle control.

Sequence of ROCK1 (Q13464 whole entry, species assumed): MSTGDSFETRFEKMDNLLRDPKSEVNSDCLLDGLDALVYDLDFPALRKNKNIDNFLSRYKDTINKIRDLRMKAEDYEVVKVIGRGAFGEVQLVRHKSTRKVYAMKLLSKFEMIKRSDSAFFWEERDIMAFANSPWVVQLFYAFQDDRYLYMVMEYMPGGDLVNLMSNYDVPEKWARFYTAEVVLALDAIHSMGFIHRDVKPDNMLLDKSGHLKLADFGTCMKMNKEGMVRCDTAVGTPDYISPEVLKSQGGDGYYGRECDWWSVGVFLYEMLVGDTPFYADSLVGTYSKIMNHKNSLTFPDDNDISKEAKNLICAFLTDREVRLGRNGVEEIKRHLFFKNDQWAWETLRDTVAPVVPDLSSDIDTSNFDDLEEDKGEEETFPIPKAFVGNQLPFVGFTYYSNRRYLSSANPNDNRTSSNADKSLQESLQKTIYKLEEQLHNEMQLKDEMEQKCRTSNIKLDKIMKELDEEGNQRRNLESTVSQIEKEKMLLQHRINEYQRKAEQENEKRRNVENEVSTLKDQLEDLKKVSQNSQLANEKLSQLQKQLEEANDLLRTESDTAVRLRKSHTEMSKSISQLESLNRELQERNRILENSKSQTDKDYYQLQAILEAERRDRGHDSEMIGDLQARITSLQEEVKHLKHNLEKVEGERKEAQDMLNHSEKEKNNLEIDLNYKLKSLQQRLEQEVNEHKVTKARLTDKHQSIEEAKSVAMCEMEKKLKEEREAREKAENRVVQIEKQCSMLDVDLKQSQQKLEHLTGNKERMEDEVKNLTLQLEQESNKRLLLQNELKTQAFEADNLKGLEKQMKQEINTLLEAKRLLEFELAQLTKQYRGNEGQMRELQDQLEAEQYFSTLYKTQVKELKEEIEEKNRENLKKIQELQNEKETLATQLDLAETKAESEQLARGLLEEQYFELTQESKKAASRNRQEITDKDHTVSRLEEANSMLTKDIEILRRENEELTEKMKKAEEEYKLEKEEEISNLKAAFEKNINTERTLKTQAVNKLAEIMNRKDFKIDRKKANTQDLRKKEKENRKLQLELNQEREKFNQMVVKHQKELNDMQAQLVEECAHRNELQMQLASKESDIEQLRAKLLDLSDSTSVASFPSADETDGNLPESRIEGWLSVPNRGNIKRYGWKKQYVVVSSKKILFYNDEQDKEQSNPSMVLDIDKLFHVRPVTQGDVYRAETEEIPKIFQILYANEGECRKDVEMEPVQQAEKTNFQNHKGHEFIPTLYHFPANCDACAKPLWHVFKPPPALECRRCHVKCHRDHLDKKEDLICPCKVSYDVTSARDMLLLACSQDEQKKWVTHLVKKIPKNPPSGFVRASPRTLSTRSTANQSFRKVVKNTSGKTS
T1 sequence (O75116 whole entry, species assumed): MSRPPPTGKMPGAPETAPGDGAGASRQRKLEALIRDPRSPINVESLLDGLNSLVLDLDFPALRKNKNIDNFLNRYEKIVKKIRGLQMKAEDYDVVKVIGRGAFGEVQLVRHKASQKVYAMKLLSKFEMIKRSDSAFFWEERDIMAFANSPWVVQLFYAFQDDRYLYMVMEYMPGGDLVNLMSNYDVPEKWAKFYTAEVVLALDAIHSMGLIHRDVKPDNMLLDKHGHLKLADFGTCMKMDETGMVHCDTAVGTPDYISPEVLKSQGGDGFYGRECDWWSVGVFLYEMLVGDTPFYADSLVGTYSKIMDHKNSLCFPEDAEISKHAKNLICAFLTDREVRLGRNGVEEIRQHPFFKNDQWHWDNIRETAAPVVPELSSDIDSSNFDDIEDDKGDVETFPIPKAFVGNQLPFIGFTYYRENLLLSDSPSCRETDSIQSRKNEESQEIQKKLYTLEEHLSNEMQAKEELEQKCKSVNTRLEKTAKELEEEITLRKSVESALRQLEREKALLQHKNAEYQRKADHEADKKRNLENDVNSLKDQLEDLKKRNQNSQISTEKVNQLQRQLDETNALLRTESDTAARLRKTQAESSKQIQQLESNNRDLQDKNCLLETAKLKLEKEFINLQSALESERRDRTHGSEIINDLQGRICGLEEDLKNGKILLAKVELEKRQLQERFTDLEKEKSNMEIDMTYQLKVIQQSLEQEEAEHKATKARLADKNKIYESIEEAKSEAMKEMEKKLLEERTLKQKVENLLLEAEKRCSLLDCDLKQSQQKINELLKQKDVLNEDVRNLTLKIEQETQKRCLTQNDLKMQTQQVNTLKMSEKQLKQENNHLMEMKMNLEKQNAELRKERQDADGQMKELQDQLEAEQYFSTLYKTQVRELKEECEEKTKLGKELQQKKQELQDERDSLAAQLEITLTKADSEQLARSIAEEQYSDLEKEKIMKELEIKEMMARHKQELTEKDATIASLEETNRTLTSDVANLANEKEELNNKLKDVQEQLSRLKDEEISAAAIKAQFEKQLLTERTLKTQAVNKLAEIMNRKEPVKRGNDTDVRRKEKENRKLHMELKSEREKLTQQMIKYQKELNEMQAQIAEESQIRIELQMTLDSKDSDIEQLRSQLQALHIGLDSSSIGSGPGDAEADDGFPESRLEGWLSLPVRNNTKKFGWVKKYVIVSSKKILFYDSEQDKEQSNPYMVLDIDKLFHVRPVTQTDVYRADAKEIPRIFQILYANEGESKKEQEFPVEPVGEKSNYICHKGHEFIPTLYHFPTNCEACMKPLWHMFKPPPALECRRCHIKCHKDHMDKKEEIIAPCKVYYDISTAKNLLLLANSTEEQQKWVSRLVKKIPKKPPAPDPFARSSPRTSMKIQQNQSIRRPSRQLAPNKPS
Sequence of Aurora-A (O14965 whole entry): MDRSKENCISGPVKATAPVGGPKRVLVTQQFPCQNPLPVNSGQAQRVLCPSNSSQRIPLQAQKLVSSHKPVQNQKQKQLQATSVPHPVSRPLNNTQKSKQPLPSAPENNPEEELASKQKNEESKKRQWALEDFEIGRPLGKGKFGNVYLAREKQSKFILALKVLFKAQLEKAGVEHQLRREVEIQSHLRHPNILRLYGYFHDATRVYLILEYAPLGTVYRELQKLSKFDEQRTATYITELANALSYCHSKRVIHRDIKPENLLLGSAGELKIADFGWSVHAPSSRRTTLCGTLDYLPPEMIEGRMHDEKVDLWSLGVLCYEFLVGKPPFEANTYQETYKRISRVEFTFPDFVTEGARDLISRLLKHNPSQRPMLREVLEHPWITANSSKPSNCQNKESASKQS

IC50 (ROCK1; read-out: ROCK1 IC50) | IC50 (ROCK1; read-out: IC50 ± SD (μM) ROCK1) | IC50 (ROCK2 [1]; read-out: IC50 ± SD (μM) ROCK2) | SMILES | further results
0.012 µM |  |  | O=C(NCc1cccc(O)c1)Nc1nc(-c2ccncc2)cs1 [Compound 1bo-Mes, 1-(3-hydroxybenzyl)-3-(4-(pyridin-4-yl)thiazol-2-yl)urea methanesulfonate] | IC50 (ROCK1; methanesulfonate, read-out: IC50 ± SD (μM) ROCK1): 0.013 µM; IC50 ([3]; NCI-H1299): 0.5 µM
 | 6.25 ± 1.36 µM | 3.35 ± 0.87 µM | O=C(Nc1nc(-c2ccncc2)cs1)N[C@H]1CCCc2ccccc21 [Compound 1cw] | 
 | 2.49 ± 1.07 µM | 3.75 ± 0.39 µM | O=C(Nc1nc(-c2ccncc2)cs1)Nc1ccccc1Cl [Compound 6e, 1-(2-Chlorophenyl)-3-(4-(pyridin-4-yl)thiazol-2-yl)urea] | 
 | 16.9 ± 2.11 µM | 8.35 ± 2.36 µM | O=C(Nc1nc(-c2ccncc2)cs1)N1CCN(c2ccncc2)CC1 [Compound 12a, 4-(Pyridin-4-yl)-N-(4-(pyridin-4-yl)thiazol-2-yl)piperazine-1-carboxamide] | 

The next lines start with the compound.

SMILES | IC50 (ROCK1; read-out: ROCK1 IC50) | IC50 (ROCK1; read-out: IC50 ± SD (μM) ROCK1) | IC50 (ROCK2 [1]; read-out: IC50 ± SD (μM) ROCK2) | further results
O=C(Nc1nc(-c2ccncc2)cs1)C1COc2ccccc2O1 (stereo not drawn) [CID5056270, reference compound] | 0.076 µM |  |  | IC50 (ROCK2 [1]; read-out: ROCK2 IC50): 0.04 µM; IC50 (Aurora-A): > 100 µM; IC50 (ROCK2 [2]): < 0.003 µM
COc1ccc(CNC(=O)Nc2nc(-c3ccncc3)cs2)cc1 [Compound 1am, 1-(4-Methoxybenzyl)-3-(4-(pyridin-4-yl)thiazol-2-yl)urea] |  |  |  | inhibition at 50 µM (ROCK1; read-out: ROCK1 % inhibition @ 50 μM, 50 μM compound): 9.12%; effect on phosphorylation of MYPT1 ([3]; H1299 cells, 10 μM): did not affect
O=C(NCc1cccc(O)c1)Nc1nc(-c2ccncc2)cs1 [Compound 1bo, 1-(3-Hydroxybenzyl)-3-(4-(pyridin-4-yl)thiazol-2-yl)urea] | 0.008 µM |  |  | IC50 [3]: 0.5 µM; average percent change in tumor volume (breast tumors): 8.9%
